Drawing on patent publication US20220251081A1, “HETEROBICYCLIC INHIBITORS OF MAT2A AND METHODS OF USE FOR TREATING CANCER” (priority 2019, published 2022), this text covers IC50 for 24 compounds.

In assay [1] the test system is SAM in HCT116 human colon carcinoma cell line with deleted MTAP gene. The experiment in a line: Cellular assay of target engagement (SAM): SAM level by LC-MS/MS after 72 hrs. Format: cell-based. The settings on record: HCT-116, IC50 score, read-out: Cell 72 h SAM Inhibition (MTAP −/−). In a few lines:
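MTAP-deleted HCT116 cells were seeded, then exposed 24 h later to a 10-point 3-fold compound dilution series for 72 h at 37 °C/5% CO2. They were lysed in cold 80% methanol/acetic acid containing d3-SAM internal standard. SAM was quantified by LC-MS/MS (MRM, m/z 399.2→250.1).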

Another assay has as its system HCT116 MTAP +/+. In words: Inhibition of cellular proliferation, 4 days, Cell Titer Glo, HCT116 MTAP+/+. The settings on record: Homo sapiens, HCT-116, 96 h, IC50 score, read-out: 4 Day Relative Growth Inhibition (MTAP +/+). It counts as cell-based. The gist of the method:
(§1)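 Isogenic human colon carcinoma lines differing only in MTAP status, plated 24 h before dosing, then exposed for 4 days at 37 °C/5% CO2 to a 10-point 3-fold dilution series (0.2% DMSO final). Read-out is Cell Titer Glo ATP luminescence, blank-subtracted and normalised to in-plate DMSO control, plotted as % proliferation change versus log molar concentration.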
In general terms: Cellular ATP, detected with luciferase, serves as a proxy for viable cell number.

In another assay the test system is HCT116 MTAP-/-. In words: Inhibition of cellular proliferation, 4 days, Cell Titer Glo, HCT116 MTAP-/-. It counts as cell-based. The settings on record: Homo sapiens, HCT-116, 96 h, IC50 score, read-out: 4 Day Relative Growth Inhibition (MTAP −/−). In a few lines:
as §1

The target of another assay is T1, MAT2A homodimer (Homo sapiens, UniProt P31153).
T1 construct: inferred from Ni sepharose purification and imidazole elution; made in house; host or cells: Sf9 insect cells, recombinant baculovirus (Bac to Bac, pFASTBAC1 vector)
T1 sequence (P31153 whole entry): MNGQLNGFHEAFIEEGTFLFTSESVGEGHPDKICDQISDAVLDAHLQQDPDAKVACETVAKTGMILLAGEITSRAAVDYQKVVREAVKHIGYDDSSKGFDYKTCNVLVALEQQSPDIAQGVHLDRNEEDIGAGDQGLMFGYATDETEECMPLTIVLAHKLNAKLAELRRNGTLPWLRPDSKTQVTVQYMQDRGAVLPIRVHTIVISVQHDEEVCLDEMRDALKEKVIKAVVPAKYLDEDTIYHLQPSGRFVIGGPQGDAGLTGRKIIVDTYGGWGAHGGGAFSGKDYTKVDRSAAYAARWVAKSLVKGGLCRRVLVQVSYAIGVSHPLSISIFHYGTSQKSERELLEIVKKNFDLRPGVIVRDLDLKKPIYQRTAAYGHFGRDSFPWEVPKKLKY
The experiment in a line: Biochemical assay: inhibition of recombinant MAT2A homodimer (phosphate release, PiColorLock Gold). Conditions: MAT2A IC50 score; read-out: Enzyme Inhibition. In a few lines: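 Baculovirus/Sf9-expressed, Ni-purified MAT2A at 4 μg/mL in pH 8.0 Tris/KCl/MgCl2/EDTA/BSA buffer, preincubated with compound 60 min at 25 °C. Started with ATP and L-methionine substrate mix (500 μM and 40 μM, stock in mix), 60 min at 25 °C; released phosphate by PiColorLock Gold against a phosphate standard curve.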

Bounds are passed on as bounds.

In the case of `CCOc1cnc2cc(-c3ccc(OC)cc3)c(=O)n(-c3ccc(OC(F)F)cc3)c2n1` [Example 230], the IC50 in assay [1] is below 100 nM; in the assay on HCT116 MTAP +/+ it was 100 to 1000 nM; in the assay with HCT116 MTAP-/-, 100 to 1000 nM; on MAT2A homodimer, below 100 nM.
Regarding `CCOc1cnc2cc(-c3ccc4nn(C)cc4c3)c(=O)n(-c3ccc(OC(F)F)cc3)c2n1` [Example 231], the IC50 in assay [1] is below 100 nM; with HCT116 MTAP +/+ it was 100 to 1000 nM; with HCT116 MTAP-/- it was below 100 nM; on MAT2A homodimer, below 100 nM.
Consider `COc1ccc(-c2cc3cnc(NCC(F)(F)F)nc3n(-c3ccc(Br)cc3)c2=O)cc1` [Example 232, 8-(4-bromophenyl)-6-(4-methoxyphenyl)-2-(2,2,2-trifluoroethylamino)pyrido[2,3-d]pyrimidin-7(8H)-one], for which the IC50 in assay [1] was below 100 nM; with HCT116 MTAP +/+, at least 1000 nM; in the assay on HCT116 MTAP-/-, 100 to 1000 nM; at MAT2A homodimer it was below 100 nM.
As for `COc1ccc(-c2cc3cnc(NCC(F)(F)F)nc3n(-c3ccc(-c4ccn[nH]4)cc3)c2=O)cc1` [Example 233, 8-(4-(1H-pyrazol-5-yl)phenyl)-6-(4-methoxyphenyl)-2-(2,2,2-trifluoroethylamino)pyrido[2,3-d]pyrimidin-7(8H)-one], the IC50 in assay [1] was below 100 nM; in the assay on HCT116 MTAP +/+, at least 1000 nM; in the assay with HCT116 MTAP-/-, below 100 nM; at MAT2A homodimer it was below 100 nM.
In the case of `COc1ccc(-n2c(=O)c(-c3ccc(=O)[nH]c3)cc3cnc(NCC(F)(F)F)nc32)cc1` [Example 235, 8-(4-methoxyphenyl)-6-(6-oxo-1,6-dihydropyridin-3-yl)-2-(2,2,2-trifluoroethylamino)pyrido[2,3-d]pyrimidin-7(8H)-one], the IC50 in assay [1] was 100 to 1000 nM; in the assay on HCT116 MTAP +/+ it was at least 1000 nM; with HCT116 MTAP-/-, 100 to 1000 nM; on MAT2A homodimer, below 100 nM.
As to `CCCc1ccc2cc(-c3ccc4nn(C)cc4c3)c(=O)n(-c3ccc(Cl)cc3)c2n1` [Example 236, 1-(4-chlorophenyl)-3-(2-methyl-2H-indazol-5-yl)-7-propyl-1,8-naphthyridin-2(1H)-one], the IC50 is below 100 nM in assay [1], at least 1000 nM in the assay on HCT116 MTAP +/+, below 100 nM in the assay with HCT116 MTAP-/- and below 100 nM at MAT2A homodimer.
Take `COc1ccc(-c2cc3ncc(NCC(F)(F)F)nc3n(-c3ccc(OC(F)F)cc3)c2=O)cc1` [Example 237, 5-(4-(difluoromethoxy)phenyl)-7-(4-methoxyphenyl)-3-((2,2,2-trifluoroethyl)amino)pyrido[2,3-b]pyrazin-6(5H)-one]: the IC50 is below 100 nM in assay [1], at least 1000 nM in the assay with HCT116 MTAP +/+, below 100 nM in the assay on HCT116 MTAP-/- and below 100 nM on MAT2A homodimer.
Consider `[2H]C([2H])([2H])Oc1ccc(-n2c(=O)c(-c3ccc4nn(C)cc4c3)cc3ccc(OC([2H])([2H])C([2H])([2H])[2H])nc32)cc1` [Example 301], for which the IC50 was below 100 nM in assay [1], 100 to 1000 nM with HCT116 MTAP +/+, below 100 nM in the assay with HCT116 MTAP-/- and below 100 nM on MAT2A homodimer.
For the compound `[2H]C([2H])([2H])Oc1ccc(-n2c(=O)c(-c3ccc4nn(C)cc4c3)cc3ccc(OCCF)nc32)cc1` [Example 302], the IC50 in assay [1] is below 100 nM; with HCT116 MTAP +/+, 100 to 1000 nM; in the assay with HCT116 MTAP-/-, below 100 nM; on MAT2A homodimer, below 100 nM.
For `[2H]C([2H])([2H])Oc1ccc(-n2c(=O)c(-c3ccc4nn(C([2H])([2H])[2H])cc4c3)cc3ccc(OC([2H])([2H])C([2H])([2H])[2H])nc32)cc1` [Example 303], the IC50 is below 100 nM in assay [1], 100 to 1000 nM with HCT116 MTAP +/+, below 100 nM in the assay with HCT116 MTAP-/- and below 100 nM at MAT2A homodimer.
In the case of `[2H]C([2H])([2H])Oc1ccc(-n2c(=O)c(-c3ccc4nn(C)cc4c3)cc3ccc(O[C@@H](C)C(F)(F)F)nc32)cc1` [Example 305], the IC50 in assay [1] is below 100 nM; in the assay with HCT116 MTAP +/+, at least 1000 nM; in the assay on HCT116 MTAP-/- it was below 100 nM; on MAT2A homodimer, below 100 nM.
For the compound `CCNc1ccc2cc(-c3ccc4nn(C)cc4c3)c(=O)n(-c3ccc(C)nc3)c2n1` [Example 307], the IC50 was below 100 nM in assay [1], at least 1000 nM in the assay with HCT116 MTAP +/+, below 100 nM in the assay on HCT116 MTAP-/- and below 100 nM at MAT2A homodimer.
Take `CCNc1ccc2cc(-c3ccc4nn(C)cc4c3)c(=O)n(-c3ccc(C4CC4)nc3)c2n1` [Example 308]: the IC50 in assay [1] was below 100 nM; in the assay on HCT116 MTAP +/+ it was at least 1000 nM; in the assay with HCT116 MTAP-/-, below 100 nM; on MAT2A homodimer, below 100 nM.
Regarding `CCNc1ccc2cc(-c3ccc4nn(C)cc4c3)c(=O)n(-c3ccc(OC(F)F)cc3)c2n1` [Example 309], the IC50 (in assay [1]; in the assay on HCT116 MTAP +/+; with HCT116 MTAP-/-; at MAT2A homodimer) was below 100 nM throughout.
Regarding `CCNc1ccc2cc(-c3ccc4nn(C)cc4c3)c(=O)n(-c3ccc(Cl)cc3)c2n1` [Example 310], the IC50 in assay [1] is below 100 nM; in the assay on HCT116 MTAP +/+, 100 to 1000 nM; in the assay with HCT116 MTAP-/-, below 100 nM; on MAT2A homodimer, below 100 nM.
On to `COc1ccc(-n2c(=O)c(-c3ccc4nn(C)cc4c3)cc3ccc(OCC(F)(F)F)nc32)cc1` [Example 313], for which the IC50 in assay [1] is below 100 nM; in the assay on HCT116 MTAP +/+, at least 1000 nM; in the assay with HCT116 MTAP-/-, below 100 nM; at MAT2A homodimer it was below 100 nM.
On to `Cn1cc2cc(-c3cc4ccc(OCC(F)(F)F)nc4n(-c4ccc(C5CC5)cc4)c3=O)ccc2n1` [Example 314], for which the IC50 in assay [1] was below 100 nM; in the assay with HCT116 MTAP +/+, at least 1000 nM; with HCT116 MTAP-/- it was below 100 nM; at MAT2A homodimer, below 100 nM.
Consider `[2H]C([2H])([2H])Oc1ccc(-n2c(=O)c(-c3ccc4nn(C)cc4c3)cc3ccc(OCC(F)(F)F)nc32)cc1` [Example 316], for which the IC50 in assay [1] is below 100 nM; in the assay on HCT116 MTAP +/+, at least 1000 nM; in the assay with HCT116 MTAP-/-, below 100 nM; on MAT2A homodimer, below 100 nM.
As to `CCOc1ccc2cc(-c3ccc4nn(C)cc4c3)c(=O)n(-c3ccc(Br)cc3)c2n1` [Example 317], the IC50 in assay [1] is below 100 nM; with HCT116 MTAP +/+ it was 100 to 1000 nM; in the assay with HCT116 MTAP-/- it was 100 to 1000 nM; on MAT2A homodimer, below 100 nM.
In the case of `Cn1cc2cc(-c3cc4ccc(OCC(F)F)nc4n(-c4ccc(Br)cc4)c3=O)ccc2n1` [Example 318], the IC50 is below 100 nM in assay [1], 100 to 1000 nM in the assay with HCT116 MTAP +/+, below 100 nM in the assay on HCT116 MTAP-/- and below 100 nM at MAT2A homodimer.
Regarding `Cn1cc2cc(-c3cc4ccc(OCC(F)(F)F)nc4n(-c4ccc(Br)cc4)c3=O)ccc2n1` [Example 319], the IC50 was below 100 nM in assay [1], at least 1000 nM in the assay on HCT116 MTAP +/+, below 100 nM in the assay with HCT116 MTAP-/- and below 100 nM at MAT2A homodimer.
As for `Cn1cc2cc(-c3cc4ccc(OCC(F)(F)F)nc4n(-c4ccc(N)nc4)c3=O)ccc2n1` [Example 320], the IC50 in assay [1] is below 100 nM; in the assay on HCT116 MTAP +/+ it was 100 to 1000 nM; with HCT116 MTAP-/-, below 100 nM; at MAT2A homodimer, below 100 nM.
For `Cn1cc2cc(-c3cc4ccc(OCC(F)F)nc4n(-c4ccc(OC(F)F)cc4)c3=O)ccc2n1` [Example 321], the IC50 is below 100 nM in assay [1], at least 1000 nM in the assay on HCT116 MTAP +/+, below 100 nM with HCT116 MTAP-/- and below 100 nM at MAT2A homodimer.
Turning to `[2H]C([2H])([2H])Oc1ccc(-n2c(=O)c(-c3ccc4nn(C)cc4c3)cc3ccc(OC(C)C)nc32)cc1` [Example 322], the IC50 in assay [1] is below 100 nM; in the assay with HCT116 MTAP +/+, at least 1000 nM; in the assay with HCT116 MTAP-/-, below 100 nM; at MAT2A homodimer it was below 100 nM.
